Earlier results, collected in patent US9707174B2, “Aqueous ophthalmic solution of olopatadine” (Gavis Pharmaceuticals, priority 2015, dated 2017).

Conditions: pH about 7.0, room temperature, olopatadine by itself

soluble in water up to a concentration: about 0.18 w/v %
Structure (SMILES): CN(C)CC/C=C1/c2ccccc2COc2ccc(CC(=O)O)cc21 [olopatadine]
